Here are results for 51 compounds from PubChem BioAssay AID1996.

Structures are written as SMILES. Values after ≈ are worked out from the molar mass of the structure shown. Some results are limits rather than exact numbers.

The conditions of this series: buffer; pH 7.4; 200.0 µM.
As for `O=C(COc1ccc(Cl)cc1)Nc1nnc(C2=COCCO2)o1`, the kinetic solubility (in general, solubility judged after dilution from a stock solution rather than from solid) is greater than 0.0507 mg/mL. In the case of `CCCn1c(N)c(CC)c(=O)[nH]c1=O`, the kinetic solubility was greater than 0.0296 mg/mL. Turning to `CC1(C)CC(=O)N(c2cccc(Cl)c2)C(=O)C1`, the kinetic solubility is greater than 0.0378 mg/mL. For `COc1ccc(OC)c(/C=C/C(=O)OCC(=O)N2CCCC2)c1`, the kinetic solubility is greater than 0.0479 mg/mL.

`N#CCOc1ccccc1/C=C/c1nc2ccccc2c(=O)[nH]1` showed a solubility (kinetic) of 0.005 mg/mL (≈ 16.5 µM).

For `CN(C)C(=S)Nc1nc2ccccc2s1`, the solubility (kinetic) amounted to 0.0054 mg/mL (≈ 22.8 µM). As for `Cc1cc(N2CCN(c3ncccn3)CC2)nc2c(C)cccc12`, the solubility (kinetic) was determined as 0.0002 mg/mL (≈ 0.626 µM). Take `CCc1c(C)sc(NC(=S)Nc2cccnc2)c1C(=O)OC`: the solubility (kinetic) is greater than 0.0503 mg/mL. Compound `Cc1nc(C(F)(F)F)ccc1C(=O)Nc1ccccc1F` had a solubility (kinetic) greater than 0.0447 mg/mL.

Compound `COc1ccc(-c2cc(C(=O)OCC(=O)N3CCOCC3)c3ccccc3n2)cc1` returned a solubility (kinetic) of 0.0263 mg/mL (≈ 64.7 µM).

Compound `Cc1nc(Cl)sc1C(=O)Nc1cc(F)cc(F)c1` displayed a solubility (kinetic) of 0.0207 mg/mL (≈ 71.7 µM). As to `Nc1ccc(S(=O)(=O)NC(Cc2ccccc2)C(=O)O)cc1` (stereo unspecified), the kinetic solubility was determined as 0.0329 mg/mL (≈ 103 µM). As for `COC(=O)c1ccc(NCC(=O)Nc2cc(C)cc(C)c2)cc1`, the kinetic solubility was determined as 0.0054 mg/mL (≈ 17.3 µM). Against the preceding compound, the solubility kinetic is about 6.1-fold lower. Under `N#Cc1ccc(NC(=O)C2=COCCO2)cc1` stands greater than 0.0345 mg/mL; under `N#Cc1ccc(OCC(=O)NCC2COc3ccccc3O2)cc1` (stereo unspecified), greater than 0.0487 mg/mL; under `COCCNC(=O)C(=O)Nc1cc2c3c(c1)CC(=O)N3CCC2`, 0.0423 mg/mL (≈ 133 µM). Compound `CC(C)CN1CCN(Cc2cccc3c2OCO3)CC1CCO` (stereo unspecified) had a kinetic solubility greater than 0.0481 mg/mL. As for `Cc1noc(C)c1COc1ccc(C(=O)N2CCC(C(N)=O)CC2)cc1`, the kinetic solubility is greater than 0.0536 mg/mL. In the case of `Cc1ccc(-n2c(=O)c3ccccc3n(CC(=O)C(C)(C)C)c2=O)cc1`, the kinetic solubility amounted to 0.0077 mg/mL (≈ 22 µM). `NC1=NC(=O)CC(C(=O)Nc2cccc3ccccc23)S1` (stereo unspecified) came in with a kinetic solubility greater than 0.0449 mg/mL.

In turn, `Cc1ccc(C(=O)NCc2cccnc2)o1` registered a solubility (kinetic) greater than 0.0324 mg/mL. Turning to `Cc1ccc(NC(=O)CCCc2c[nH]c3ccccc23)nc1`, the kinetic solubility was 0.0038 mg/mL (≈ 13 µM). Turning to `NS(=O)(=O)c1ccc(NC(=S)NC(=O)c2cccs2)cc1`, the kinetic solubility is 0.0062 mg/mL (≈ 18.2 µM). In turn, `CC(C)c1ccc(Nc2nc(Cl)nc(Cl)n2)cc1` had a solubility (kinetic) of 0.0285 mg/mL (≈ 101 µM). This solubility kinetic is about 4.6-fold higher than that of the compound before.

Regarding `O=C(CC1OC(=O)c2ccccc21)Nc1cc(Cl)ccc1N1CCOCC1` (stereo unspecified), the solubility (kinetic) was 0.0058 mg/mL (≈ 15 µM). `COc1cc(C(=O)Nc2cccnc2)cc(OC)c1OC` came in with a solubility (kinetic) greater than 0.0432 mg/mL. In turn, `O=S(=O)(Nc1ccc(N2CCCCC2)cc1)c1ccc(F)cc1F` gave a solubility (kinetic) of 0.0413 mg/mL (≈ 117 µM). The compound `CN1C(=O)C(c2ccc([N+](=O)[O-])cc2[N+](=O)[O-])C(=O)N(C)C1=O` displayed a kinetic solubility greater than 0.0483 mg/mL. Under `Cc1cc(=O)oc2c(C)c(OCC(=O)NCC3CCC(C(=O)O)CC3)ccc12` (stereo unspecified) stands greater than 0.0581 mg/mL. Regarding `COc1ccc(N=CC=C2OC(C)(C)C(C)(C)O2)cc1OC.Cl`, the kinetic solubility worked out at 0.0471 mg/mL. As to `Fc1ccc(COc2ccc(C(=S)N3CCCC3)cc2)cc1`, the solubility (kinetic) was less than 0.0007 mg/mL. Regarding `O=C(N/N=C/c1cccnc1)c1ccccc1Cl`, the kinetic solubility was greater than 0.039 mg/mL. `O=C(COC(=O)c1ccco1)NCc1ccc(Cl)cc1` displayed a solubility (kinetic) of 0.0164 mg/mL (≈ 55.8 µM).

In turn, `O=C(CSc1nnc(NC(=O)c2c(F)cccc2F)s1)NC1CC1` gave a kinetic solubility greater than 0.0556 mg/mL.

Regarding `O=C(CN1CCCCCC1)Nc1ccc(Br)cn1`, the kinetic solubility was 0.0337 mg/mL (≈ 108 µM).

For the compound `Cn1c(N)c(C(=O)CSc2nnc(C3CC3)n2-c2ccccc2)c(=O)[nH]c1=O`, the kinetic solubility is greater than 0.0598 mg/mL. `O=C1/C(=C/c2ccco2)SC(=S)N1CC1CCCO1` (stereo unspecified) yielded a kinetic solubility of 0.0066 mg/mL (≈ 22.3 µM).

With `O=C(COc1ccc(Br)cc1)OCC(=O)N1CCOCC1`, the kinetic solubility was greater than 0.0537 mg/mL.

For `CCCc1nc(-c2cc3cc(C)ccc3[nH]c2=O)no1`, the solubility (kinetic) is 0.015 mg/mL (≈ 55.7 µM).

As for `O=C(O)c1ccccc1-c1ncc(-c2ccccc2)o1`, the solubility (kinetic) is greater than 0.0398 mg/mL. Under `O=C(NCCCNC(=O)c1c(F)cccc1F)c1c(F)cccc1F` stands greater than 0.0531 mg/mL. In the case of `O=C(COC(=O)c1ccc([N+](=O)[O-])o1)NC1CCCCC1`, the kinetic solubility was greater than 0.0444 mg/mL. `Cc1cc(C)c2c(=O)cc(C(=O)NCc3ccccc3)oc2c1` had a solubility (kinetic) of less than 0.0007 mg/mL. `CN(C)c1cccc(C(=O)OCC(=O)N2CCc3ccccc3C2)c1` registered a kinetic solubility of 0.0279 mg/mL (≈ 82.4 µM). For the compound `CC1CC(C)(C)NC(=S)N1CC(=O)NCc1ccc(F)cc1` (stereo unspecified), the solubility (kinetic) stood at 0.0415 mg/mL (≈ 128 µM).

Take `COc1cccc(C(C)NC(=O)C2CCCC2)c1` (stereo unspecified): the solubility (kinetic) was greater than 0.0371 mg/mL. The compound `COc1ccc(CCN(C)C(=O)c2ccc3c(=O)n4c(nc3c2)CCCCC4)cc1OC` had a solubility (kinetic) greater than 0.0653 mg/mL. Compound `O=C(Nc1ccccc1N1CCCCC1)c1ccc(OC(F)F)cc1` returned a kinetic solubility of 0.0007 mg/mL (≈ 2.02 µM). In turn, `O/N=C1\CCSc2ccc(F)cc21` registered a kinetic solubility of 0.0234 mg/mL (≈ 119 µM). This solubility kinetic is about 33-fold higher than that of the compound before.

The compound `O=C(NCc1ccco1)Nc1ccc(OC(F)(F)F)cc1` gave a solubility (kinetic) of 0.0111 mg/mL (≈ 37 µM). In turn, `CC(C)NC(=O)c1ccc(S(=O)(=O)N(C)C)cc1` gave a kinetic solubility greater than 0.0406 mg/mL.
